Test results: patent publication US11873295B2, “Allosteric chromenone inhibitors of phosphoinositide 3-kinase (PI3K) for the treatment of disease” (Petra Pharma Corporation, priority 2021, dated 2024)

Tests used:
[1] = molecular target: T1, human full length PIK3KA Wild-type (p110α/p85α complex) (Homo sapiens, UniProt P42336); assay: PI3K-alpha kinase (PIK3CA) biochemical activity, wild-type, ADP-Glo; settings: PI3K-α (PIK3CA) biochemical, Soy PI lipid substrate
T1 construct: Recombinant, catalytically active human full length PIK3KA Wild-type and H1047R mutant were purchased as 1:1 complex; 6xHis (N); purchased EMD Millipore Sigma 14-602M
Summary of the method: (§1)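 ADP formation, read by ADP-Glo, is run to about 10% ATP turnover at 27 °C with 20 μM ATP and 50 μM PIP2diC8 or soy PI. WT or H1047R p110α/p85α (1–5 nM) is pre-incubated 1 h with compound in HEPES pH 7.4/MgCl2/Triton buffer, 1% DMSO. 10-point 1:3 series, logistic IC50 versus no-enzyme and DMSO controls.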

[2] = molecular target: T2, human full length PIK3KA H1047R mutant (p110α/p85α complex) (Homo sapiens, UniProt P42336, H1047R); assay: PI3K-alpha kinase (PIK3CA) biochemical activity, H1047R mutant, ADP-Glo; settings: PI3K-α (PIK3CA) biochemical, H1047R mutant, Soy PI lipid substrate
T2 construct: Recombinant, catalytically active human full length PIK3KA Wild-type and H1047R mutant were purchased as 1:1 complex; 6xHis (N); purchased EMD Millipore Sigma 14-792M
Summary of the method: as §1

[3] = system: PI3K-α (PIK3CA) in MDA-MB-453 cells; assay: PI3K-alpha kinase (PIK3CA) activity in vitro cell based assay, MDA-MB-453 cells, AlphaLisa SureFire; settings: 0% FBS, 3 hours treatment, relative IC50
Summary of the method: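 MDA-MB-453 cells in serum-free MEM with 1 μg/mL insulin treated 3 h with 10-point 1:3 compound dilutions, 0.3% DMSO. Lysates read by AlphaLisa SureFire; percent inhibition relative to DMSO (max) and 1 μM GDC-0032 (min), duplicate means fitted to 4-parameter logistic for relative IC50.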

T2 sequence (P42336 whole entry H1047R): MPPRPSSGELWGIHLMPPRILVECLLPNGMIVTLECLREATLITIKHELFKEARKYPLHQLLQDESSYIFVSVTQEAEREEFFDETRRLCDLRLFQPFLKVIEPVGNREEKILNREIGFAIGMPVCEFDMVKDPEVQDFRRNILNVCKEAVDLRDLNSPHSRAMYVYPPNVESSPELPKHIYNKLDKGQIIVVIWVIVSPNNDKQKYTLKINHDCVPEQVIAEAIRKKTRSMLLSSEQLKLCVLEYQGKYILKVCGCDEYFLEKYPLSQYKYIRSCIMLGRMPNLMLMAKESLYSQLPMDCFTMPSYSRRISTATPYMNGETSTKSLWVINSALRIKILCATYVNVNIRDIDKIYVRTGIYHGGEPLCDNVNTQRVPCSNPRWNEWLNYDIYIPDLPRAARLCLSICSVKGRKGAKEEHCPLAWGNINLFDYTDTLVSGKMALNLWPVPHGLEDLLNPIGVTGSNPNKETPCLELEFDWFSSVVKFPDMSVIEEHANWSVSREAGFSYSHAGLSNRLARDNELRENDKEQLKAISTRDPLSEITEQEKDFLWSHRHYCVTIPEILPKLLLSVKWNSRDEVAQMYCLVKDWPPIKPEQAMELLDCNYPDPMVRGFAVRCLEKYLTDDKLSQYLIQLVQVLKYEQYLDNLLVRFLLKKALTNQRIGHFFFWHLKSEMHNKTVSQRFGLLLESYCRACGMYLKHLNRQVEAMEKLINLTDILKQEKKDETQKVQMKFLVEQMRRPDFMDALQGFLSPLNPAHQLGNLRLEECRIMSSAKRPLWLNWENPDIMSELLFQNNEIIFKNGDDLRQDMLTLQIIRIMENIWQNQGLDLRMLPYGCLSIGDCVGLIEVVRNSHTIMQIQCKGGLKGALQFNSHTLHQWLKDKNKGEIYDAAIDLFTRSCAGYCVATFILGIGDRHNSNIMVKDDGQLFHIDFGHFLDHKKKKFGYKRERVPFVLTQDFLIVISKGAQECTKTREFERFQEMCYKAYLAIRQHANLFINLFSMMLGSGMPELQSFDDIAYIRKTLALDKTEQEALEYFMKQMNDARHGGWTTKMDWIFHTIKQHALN
T2 sequence (P27986 whole entry partner): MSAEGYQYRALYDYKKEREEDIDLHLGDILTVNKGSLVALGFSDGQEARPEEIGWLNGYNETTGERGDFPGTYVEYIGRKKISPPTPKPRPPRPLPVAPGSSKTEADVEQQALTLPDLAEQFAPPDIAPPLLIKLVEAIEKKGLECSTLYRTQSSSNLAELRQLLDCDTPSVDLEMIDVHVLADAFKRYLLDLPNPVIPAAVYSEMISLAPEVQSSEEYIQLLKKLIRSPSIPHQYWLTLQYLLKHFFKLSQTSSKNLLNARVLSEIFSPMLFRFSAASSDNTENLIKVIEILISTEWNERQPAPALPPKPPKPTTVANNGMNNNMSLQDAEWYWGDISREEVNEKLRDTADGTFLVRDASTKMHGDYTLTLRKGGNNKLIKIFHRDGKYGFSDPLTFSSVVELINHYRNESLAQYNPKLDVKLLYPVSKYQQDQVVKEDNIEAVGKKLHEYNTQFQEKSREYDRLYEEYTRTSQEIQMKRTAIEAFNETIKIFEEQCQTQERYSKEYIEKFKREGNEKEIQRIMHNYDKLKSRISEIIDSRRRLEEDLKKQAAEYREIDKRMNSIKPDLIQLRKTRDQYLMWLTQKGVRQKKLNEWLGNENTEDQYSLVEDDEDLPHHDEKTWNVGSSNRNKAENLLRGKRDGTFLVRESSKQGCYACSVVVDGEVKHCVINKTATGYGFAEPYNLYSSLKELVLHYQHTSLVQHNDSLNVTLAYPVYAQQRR

Row | Compound | IC50 [1] | IC50 [2] | IC50 ([3]; Homo sapiens, MDA-MB-453, 3 h) | IC50 [3]
1 | Cc1cc([C@@H](C)Nc2ncccc2C(=O)O)c2oc(-c3ccccc3)c(C)c(=O)c2c1 [Example 137, 2-[[(1R)-1-(3,6-Dimethyl-4-oxo-2-phenyl-chromen-8-yl)ethyl]amino]pyridine-3-carboxylic acid] | 1000 to 5000 nM | < 500 nM | < 50 nM | –
2 | Cc1cc([C@@H](C)Nc2ccccc2C(=O)O)c2oc(-c3cccc(C(F)F)c3)c(C)c(=O)c2c1 [Example 73, 2-[[(1R)-1-[2-[3-(Difluoromethyl)phenyl]-3,6-dimethyl-4-oxo-chromen-8-yl]ethyl]amino]benzoic acid 2,2,2-trifluoroacetic acid] | > 10000 nM | < 500 nM | < 50 nM | –
3 | Cc1cc(C(C)Nc2cccc(F)c2C(=O)O)c2oc(-c3ccccc3F)c(C)c(=O)c2c1 (stereo not drawn) [Example 94, 2-Fluoro-6-[1-[2-(2-fluorophenyl)-3,6-dimethyl-4-oxo-chromen-8-yl]ethylamino]benzoic acid 2,2,2-trifluoroacetic acid] | 1000 to 5000 nM | < 500 nM | < 50 nM | –
4 | Cc1cc([C@@H](C)Nc2ccccc2C(=O)O)c2oc(-c3ccccc3)c(C)c(=O)c2c1 [Example 21, 2-[[(1R)-1-(3,6-Dimethyl-4-oxo-2-phenyl-chromen-8-yl)ethyl]amino]benzoic acid] | 1000 to 5000 nM | < 500 nM | < 50 nM | –
5 | Cc1cc([C@@H](C)Nc2ccc(Cl)nc2C(=O)O)c2oc(-c3ccc(F)cc3F)c(C)c(=O)c2c1 [Example 131, 6-Chloro-3-[[(1R)-1-[2-(2,4-difluorophenyl)-3,6-dimethyl-4-oxo-chromen-8-yl]ethyl]amino]pyridine-2-carboxylic acid 2,2,2-trifluoroacetic acid] | 1000 to 5000 nM | < 500 nM | < 50 nM | –
6 | COc1ccc(-c2cc(=O)c3cc(C)cc([C@@H](C)Nc4ccccc4C(=O)O)c3o2)cc1 [Example 66, 2-[[(1R)-1-[2-(4-Methoxyphenyl)-6-methyl-4-oxo-chromen-8-yl]ethyl]amino]benzoic acid 2,2,2-trifluoroacetic acid] | 1000 to 5000 nM | < 500 nM | < 50 nM | –
7 | Cc1cc(C(C)Nc2ccccc2C(=O)O)c2oc(-c3cccc(C(C)(C)C#N)c3)cc(=O)c2c1 (single isomer, unassigned; isomer 1) [Example 4, 2-[1-[2-[3-(1-Cyano-1-methyl-ethyl)phenyl]-6-methyl-4-oxo-chromen-8-yl]ethylamino]benzoic acid, Isomer 1] | > 10000 nM | > 10000 nM | > 500 nM | –
8 | Cc1cc([C@@H](C)Nc2ccccc2C(=O)O)c2oc(-c3ccccc3F)c(C)c(=O)c2c1 [Example 44, 2-[[(1R)-1-[2-(2-Fluorophenyl)-3,6-dimethyl-4-oxo-chromen-8-yl]ethyl]amino]benzoic acid] | 1000 to 5000 nM | < 500 nM | < 50 nM | –
9 | Cc1cc([C@@H](C)Nc2ccc(C)nc2C(=O)O)c2oc(-c3ccccc3F)c(C)c(=O)c2c1 [Example 148, 3-[[(1R)-1-[2-(2-Fluorophenyl)-3,6-dimethyl-4-oxo-chromen-8-yl]ethyl]amino]-6-methyl-pyridine-2-carboxylic acid] | 5000 to 10000 nM | 500 to 1000 nM | < 50 nM | –
10 | Cc1c(-c2ccccc2)oc2c([C@@H](C)Nc3cccnc3C(=O)O)cc(C(F)(F)F)cc2c1=O [Example 122, 3-[[(1R)-1-[3-Methyl-4-oxo-2-phenyl-6-(trifluoromethyl)-chromen-8-yl]ethyl]amino]pyridine-2-carboxylic acid] | > 10000 nM | 1000 to 5000 nM | 50 to 100 nM | –
11 | Cc1cc([C@@H](C)Nc2ccc(Cl)nc2C(=O)O)c2oc(-c3ccccc3F)c(C)c(=O)c2c1 [Example 114, 6-Chloro-3-[[(1R)-1-[2-(2-fluorophenyl)-3,6-dimethyl-4-oxo-chromen-8-yl]ethyl]amino]pyridine-2-carboxylic acid 2,2,2-trifluoroacetic acid] | 1000 to 5000 nM | < 500 nM | < 50 nM | –
12 | Cc1cc([C@@H](C)Nc2ccc(C(F)(F)F)cc2C(=O)O)c2oc(-c3ccccc3)c(C)c(=O)c2c1 [Example 37, 2-[[(1R)-1-(3,6-Dimethyl-4-oxo-2-phenyl-chromen-8-yl)ethyl]amino]-5-(trifluoromethyl)benzoic acid] | 1000 to 5000 nM | 500 to 1000 nM | 100 to 500 nM | –
13 | Cc1cc([C@@H](C)Nc2cnccc2C(=O)O)c2oc(-c3ccccc3)c(C)c(=O)c2c1 [Example 138, 3-[[(1R)-1-(3,6-Dimethyl-4-oxo-2-phenyl-chromen-8-yl)ethyl]amino]pyridine-4-carboxylic acid] | > 10000 nM | < 500 nM | 100 to 500 nM | –

Second part, the compound after the results:

Row | IC50 [1] | IC50 [2] | IC50 ([3]; Homo sapiens, MDA-MB-453, 3 h) | IC50 [3] | Compound
14 | 1000 to 5000 nM | < 500 nM | < 50 nM | – | Cc1cc([C@@H](C)Nc2ccccc2C(=O)O)c2oc(-c3cccc(C(C)(C)C#N)c3)c(C)c(=O)c2c1 [Example 117, 2-[[(1R)-1-[2-[3-(1-Cyano-1-methyl-ethyl)phenyl]-3,6-dimethyl-4-oxo-chromen-8-yl]ethyl]amino]benzoic acid 2,2,2-trifluoroacetic acid]
15 | 1000 to 5000 nM | < 500 nM | < 50 nM | – | Cc1cc(C(C)Nc2cccc(F)c2C(=O)O)c2oc(-c3cccc(F)c3)c(C)c(=O)c2c1 (stereo not drawn) [Example 95, 2-Fluoro-6-[1-[2-(3-fluorophenyl)-3,6-dimethyl-4-oxo-chromen-8-yl]ethylamino]benzoic acid 2,2,2-trifluoroacetic acid]
16 | 500 to 1000 nM | < 500 nM | – | < 50 nM | COc1ccc(NC(C)c2cc(C)cc3c(=O)c(C)c(-c4ccccc4)oc23)c(C(=O)O)n1 (single isomer, unassigned; isomer 1) [Example 109, 3-[1-(3,6-Dimethyl-4-oxo-2-phenyl-chromen-8-yl)ethylamino]-6-methoxy-pyridine-2-carboxylic acid, Isomer 1]
17 | < 500 nM | < 500 nM | < 50 nM | – | Cc1cc([C@@H](C)Nc2ccc(F)cc2C(=O)O)c2oc(-c3ccccc3)c(C)c(=O)c2c1 [Example 58, 2-[[(1R)-1-(3,6-Dimethyl-4-oxo-2-phenyl-chromen-8-yl)ethyl]amino]-5-fluoro-benzoic acid]
18 | 500 to 1000 nM | < 500 nM | < 50 nM | – | CC(=O)c1c(-c2ccccc2)oc2c([C@@H](C)Nc3ccccc3C(=O)O)cc(C)cc2c1=O [Example 119, 2-[[(1R)-1-(3-Acetyl-6-methyl-4-oxo-2-phenyl-chromen-8-yl)ethyl]amino]benzoic acid 2,2,2-trifluoroacetic acid]
19 | 500 to 1000 nM | < 500 nM | < 50 nM | – | COc1cccc(-c2cc(=O)c3cc(C)cc([C@@H](C)Nc4ccccc4C(=O)O)c3o2)c1 [Example 60, 2-[[(1R)-1-[2-(3-Methoxyphenyl)-6-methyl-4-oxo-chromen-8-yl]ethyl]amino]benzoic acid 2,2,2-trifluoroacetic acid]
20 | 500 to 1000 nM | < 500 nM | < 50 nM | – | Cc1cc([C@@H](C)Nc2ccccc2C(=O)O)c2oc(-c3cccc(C#N)c3)c(C)c(=O)c2c1 [Example 30, 2-[[(1R)-1-[2-(3-Cyanophenyl)-3,6-dimethyl-4-oxo-chromen-8-yl]ethyl]amino]benzoic acid]
